The data set is described as follows: Study on solid stability of crystal form P (high temperature, high humidity, light, accelerated conditions; XRPD and HPLC). In kind it is physicochemical. As for the experimental part: In order to evaluate the solid stability of the crystal form P, the crystal form P was investigated for influence factors (high temperature, high humidity and light), stability under accelerated conditions and stability under intermediate conditions. The crystal form P was placed at high temperature (60° C., closed), high humidity (room temperature, 92.5% RH, sealing film wrapping and pricking 5-10 small holes) for 5 days and 10 days, then placed under visible light and ultraviolet light (a light-shielding control group was wrapped by tinfoil paper) according to ICH conditions (visible light illumination reached 1.2E+06 Lux hrs, ultraviolet light illumination reached 200 W·hrs/m) in a closed manner, and meanwhile, placed with stability under accelerated conditions ([…]/75% RH, sealing film wrapping and pricking 5-10 small holes) for 10 days and 1-2 months.

Where [1] appears, read: 92.5% RH, room temperature, Day 5.
The mark [2] stands for this setting: 92.5% RH, room temperature, Day 10.
Setting [3] is: Light-shielding control group, taken simultaneously with the visible light + ultraviolet groups.
Setting [4] is: Light-shielding control group, taken simultaneously with the visible light group.
[5] abbreviates: Visible + ultraviolet (ICH), illumination reaches 200 W · hrs/m^2.
Where [6] appears, read: Visible light (ICH), illumination reaches 1.2E+06 Lux · hrs.

As to `CC1(NC(=O)C(=O)c2c(Cl)c(C(=O)Nc3cc(F)c(F)c(F)c3)c3n2CCC3)CCC(CC(=O)O)CC1` (centres unmarked) [crystal form P], the Crystal form change entry is, setting by setting: (60° C., closed, Day 5) “Unchanged”; (60° C., closed, Day 10) “Unchanged”; (60° C./75% RH, 1 month) “Unchanged”; (60° C./75% RH, Day 10) “Unchanged”; (60° C./75% RH, Month 2) “Unchanged”; under setting [1], “Unchanged”. Moreover, the Crystal form change entry is “Unchanged” under setting [2]; “Unchanged” under setting [3]; “Unchanged” under setting [4]; “Unchanged” under setting [5]; “Unchanged” under setting [6]; “unchanged” (under all stability conditions). Also, the Relative purity is 100.0% (60° C., closed, Day 5); 100.0% (60° C., closed, Day 10); 100.0% (60° C./75% RH, 1 month); 100.0% (60° C./75% RH, Day 10); 100.0% (60° C./75% RH, Month 2); 100.0% under setting [1]. Moreover, the Relative purity reads like this: under setting [2], 100.0%; under setting [3], 100.0%; under setting [4], 99.9%; under setting [5], 100.0%; under setting [6], 100.0%.

For the origin of these results see patent US20230026869A1, “CRYSTAL FORM OF NUCLEOPROTEIN INHIBITOR AND USE THEREOF” (CHIA TAI TIANQING PHARMACEUTICAL GROUP CO., LTD., priority 2019, published 2023).
